Legend:
[1] = Pharmacokinetics study of carboplatin in tumor after administration of eribulin in MDA-MB-231 s.c. xenograft model; format: in vivo, nude mice; conditions: for Concentration of Carboplatin in MDA-MB-231 Tumor, AUC (0-8): tumor homogenate
Experimental: Pharmacokinetics Study of Carboplatin in Tumor after Administration of Eribulin in Human Breast Cancer Cell Line MDA-MB-231 s.c. Xenograft Models
Female nude mice, once acclimatised, were subcutaneously injected with 5×10^6 MDA-MB-231 cells in a 1:1 ratio (50 μL each) with matrigel in a volume of 0.1 mL in phosphate buffered saline, on the right flank area using a 26-gauge needle. This ensured that sufficient mice with tumors in the volume range of approximately 200˜300 mm^3 were available for the study. When the tumors reached an average size of approximately 250 mm^3, 30 mice were selected. The study included an initial experiment containing 24 mice. The first group received eribulin mesylate dosed i.v. as a single dose of 3 mg/kg; for a 20 g animal 200 μL of 0.3 mg/mL eribulin mesylate solution was dosed. To control for tumor size, a vehicle control group (vehicle B) consisting of 27 mice, was introduced before carboplatin dosing. The mice in this group were chosen so that their tumor size matches the tumor size of the eribulin mesylate-treated mice group. Vehicle B group was split in 2 groups, first one of 3 mice which received vehicle (saline) i.v. injection and the second group of 24 mice received carboplatin i.v. injection. On day 1 of vehicle B or on day 15 after the treatment of eribulin, 100 mg/kg carboplatin was administered to all mice intravenously and tumor samples were collected under anesthesia at the assigned time points 0.083, 0.25, 0.5, 1, 4, 8, 24, and 48 hours (n=3 for each time point). Tumors were homogenized with 3 times their respective weights of 1×PBS using a Mini Bead Beater-96, and the concentration of carboplatin in each tumor homogenate was analyzed by a validated LC-MS method.
The PK parameters of carboplatin in tumors were calculated using a non-compartmental approach (Pheonix/WinNonlin v. 6.3, Pharsight; Mountain View, Calif.). The time point at which the concentration of carboplatin highest was denoted as tmax. The highest concentration of carboplatin was denoted as Cmax. The observed area under the tumor concentration versus time curve from time zero to the last quantifiable time point (AUC (0-t)) and to infinity (AUC (0-inf)) were calculated using the trapezoidal method. The AUC (0-inf) was calculated as AUC (0-t)+AUC extrap, where AUC extrap represents the extrapolated AUC from the last quantifiable time point (Clast) to infinity, and was calculated as Clast/λZ. Lamda z (λZ), slope of the concentration versus time curve during the terminal phase, was determined by linear regression.
The mean, standard deviation (SD) and percent coefficient of variation (% CV) of tumor concentrations were calculated using Excel 2010 (Microsoft, Redmond, Wash.). The mean, SD, and % CV for the PK parameters of carboplatin were determined in WinNonlin or Excel 2010. […]
An AB Sciex (Foster City, Calif.) API5000 mass spectrometer, with electrospray ionization under positive ion mode, was used for sample analysis. The collision-activated dissociation (CAD) with N2 was used to generate structure characteristic product ions for quantitation.
The peak areas of carboplatin were integrated using Analyst 1.6 (AB Sciex, Foster City, Calif.), and the areas were imported into Watson 7.2 (Thermo Fisher Scientific, Waltham, Mass.). Internal standard, tolbutamide, was added to each sample, excluded blank without IS, however IS was not used for quantitation due to inconsistent instrument response of tolbutamide in all analytical runs. […]

[2] = system: human breast cancer cell line MDA-MB-231 s.c. xenograft; test: Antitumor effect of capecitabine after eribulin treatment in MDA-MB-231 s.c. xenograft model; format: in vivo, nude mice; conditions: capecitabine 540 mg/kg QD8 p.o. after eribulin 1.0 mg/kg QD1 i.v.; MDA-MB-231 xenograft; FIG. 1
Experimental: Antitumor Effect of Capecitabine after Eribulin Treatment in Human Breast Cancer Cell Line MDA-MB-231 s.c. Xenograft Models
MDA-MB-231 cells were cultured with RPMI 1640 medium containing 10% (v/v) FBS. Cultured tumor cells were suspended in 50% (v/v) BD Matrigel (BD bioscience, San Jose, Calif.) at a density of 10×10^7 cells/mL for s.c. inoculation into nude mice. A 0.1-mL aliquot of the cell suspension was transplanted subcutaneously into the right flank region of mice. Tumor volumes were calculated according to the following formula: (width [mm]^2×length [mm])/2. Tumor weights were calculated according to the following formula: tumor volume (mm^3)×1 (mg/mm^3). In the MDA-MB-231 xenograft model, when the mean tumor volume reached between 100 and 300 mg (1 mm^3=1 mg) on day 1, nude mice were randomly divided into each group. Control (no treatment); capecitabine, 540 mg/kg, QD8, p.o.; or eribulin, 1.0 mg/kg, QD1, i.v. was administered on day 1. In the eribulin group, eribulin-treated mice were randomly divided into two groups. […] The administration volume (0.1 mL/10 g body weight) was calculated based on the body weight before administration. The tumor volume was measured two times per week. […] The data was analyzed by the Dunnett multiple comparison test to compare two groups (GraphPad Prism version 6.02 (GraphPad Software Inc., La Jolla, Calif.)). […]

[3] = eribulin mesylate 3 mg/kg i.v., carboplatin 100 mg/kg i.v. on day 15

Structure (SMILES) | Concentration of Carboplatin in MDA-MB-231 Tumor, AUC (0-8) ([1]; Eribulin pretreatment (eribulin mesylate 3 mg/kg i.v. single dose), carboplatin 100 mg/kg i.v. on day 15) | Concentration of Carboplatin in MDA-MB-231 Tumor, AUC (0-8) ([1]; Vehicle B group (no eribulin), carboplatin 100 mg/kg i.v.) | AUC (0-8) of carboplatin in tumor, eribulin pretreatment group relative to Vehicle B group [1, 3] | Cmax of carboplatin in tumor, eribulin pretreatment group relative to Vehicle B group [1, 3] | exposure of carboplatin in tumors ([1]; eribulin pretreatment group mice, Table 1, FIG. 4) | antitumor activity of capecitabine with eribulin pretreatment compared with that without pretreatment [2]
N.N.O=C([O-])C1(C(=O)[O-])CCC1.[Pt+2] [Carboplatin, carboplatin] | 50504.02 ng·h/g | 36864.98 ng·h/g | about 1.37 fold | about 2.20 fold | high exposure | –
CCCCCOC(=O)Nc1nc(=O)n([C@@H]2O[C@H](C)[C@@H](O)[C@H]2O)cc1F [capecitabine] | – | – | – | – | – | significantly enhanced
